Patent US10464920B2, “Vicinal primary diamines associated with metal and/or free radical chelation motifs, and active against carbonyl and oxidative stress, and use thereof” (UNIVERSITE AMIENS PICARDIE JULES VERNE, priority 2015, dated 2019)

Key:
[1] = ORACFL test (Oxygen Radical Absorbance Capacity) using fluorescein/AAPH; format: physicochemical; conditions: compounds at 10 μM; for ORACFL: mean ± SEM of three independent experiments in triplicate
Protocol: The antioxidant properties of the compounds according to the invention were evaluated using a ORACFL test using fluorescein (J. Agric. Food Chem., 2004 52, 48-54; J. Agric. Food Chem., 2005, 53, 4290-4302). As such, peroxide radicals, generated in the presence of AAPH (2,2′-azobis(2-methylpropionamidine)dihydrochloride) at 37° C., react with this fluorescent sensor in order to give a non-fluorescent product. The protective effect of the test compounds can then be determined by following the decay curve of the fluorescence of the fluorescein over time and be measuring the area under the curve (AUC) of the sample in relation to that of a control corresponding to an absence of antioxidant.
The trolox (6-hydroxy-2,5,7,8-tetramethylchroman-2-carboxylic acid), a water-soluble analogue of vitamin E, is used as a standard for calculating the antioxidant capacity (ORACFL) of the compounds tested at 10 μM, expressed in […] of tested compound. This value is as such obtained using the straight-line calibration equation giving the area under the curve according to the various concentrations of trolox (Bioorg. Med. Chem., 2015, 23, 1135-1148) (FIG. 11).
A solution of fluorescein (FL) (12 nM; 150 μL) is introduced into a black 96-well plate (Dutscher, Brumath, France). The compounds to be tested (1-20 μM; 25 μL) or trolox (1-50 μM; 25 μL) dissolved in D-PBS are added into each well. After equilibration of the plate during an incubation at 37° C. for a minimum of 30 min, the radical reactions are initiated using a solution of AAPH prepared extemporaneously (30 mM; 25 μL). The fluorescence (λEx: 485 nm; λEm: 520 nm) is measured every 90 seconds for 60 cycles using a temperature-controlled Tecan Infinite® 200 PRO microplate reader (measurements taken in triplicates during three independent experiments).

[2] = Formation of adducts with MGO, kinetic study by HPLC; format: physicochemical; conditions: compound 10 mM, MGO 20 mM, 37° C., after 15 min of incubation
Protocol: The compounds to be tested are incubated at 37° C. in the presence of MGO or of MDA. A kinetic study aiming to report on the formation of adducts with the MGO or MDA is then carried out via HPLC analysis.
The compounds to be tested (30 μmol) are dissolved in PBS (1.5 mL). An aqueous solution (qsp 1.25 mL) of MGO at 40% in water (250 μmol) is then prepared and in parallel, MDA bis-(diOEt)-acetal (250 μmol) is set to react with a solution of HCl 1N (2 eq) in water (qsp 1.25 mL) for 1 h at room temperature. An aqueous solution of NaOH 0.05N is also required to neutralise the reaction medium (5 mL).
The solution of the compound to be tested (625 μL—final concentration in the medium=10 mM) is then set to react with the solution of MGO or of MDA prepared extemporaneously (125 μL—final concentration in the medium=20 mM) in the presence of NaOH 0.05 N (0.5 mL).
The various mixtures are then incubated in the oven at 37° C. for 24 h.
A sampling of each mixture (100 μL) is taken at regular intervals of time (0.25; 0.5; 1; 5 and 24 h) and stored at −20° C. in order to stop the reaction. After dilution in a MeCN/H2O 98:2 mixture at room temperature, the HPLC analysis is carried out on a Shimadzu LCMS-2020 apparatus (UV chromatogram at 190 nm and mass spectrum in positive electrospray ionisation mode (ESI+)) after separation on the Waters Acquity column using a gradient of solvents H2O+HCOOH 0.1%/MeCN+HCOOH 0.1% (98/2 for 2 min, then 55/45 for 2 min and 45/55 for 3 min) with a flow rate of 0.3 mL/min at 40° C. and an injection of volume of 1 (“detection mode: scan, interface voltage: tuning file, DL voltage: 100 V, Q-array DC: 40 V, Q-array RF: 40 V”). A blank is first of all carried out using a solution containing the reaction medium without scavenger. Then, a free scavenger solution at 10 mM is used as a negative control and the carnosine as a reference of the literature. The proportion of adducts formed with the MGO or MDA (generally, tR=4.1 to 6.8 min) is then measured in relation to the quantity of remaining free scavenger (generally, tR=0.8 to 4.6 min) after measurement of the area under the curve of the corresponding peaks on the UV spectrum (measurements taken for a representative sample).

[3] = test system: human fibroblasts (MRC-5); experiment: Cytotoxicity, cellular viability (CCK-8/WST-8) on MRC-5; format: cell-based
Protocol: (§1) The cellular viability is evaluated by a colorimetric method based on the detection of the conversion of a salt of the tetrazolium (WST-8) by the metabolically active cells (CCK-8 kit, Sigma, Lyons, France) (Molecules, 2014, 19(8), 12048-12064; J. Pharmacol. Toxicol. Methods., 2007, 56(1), 58-62). Living cells have mitochondrial dehydrogenases that reduce the WST-8 (2-(2-methoxy-4-nitrophenyl)-3-(4-nitrophenyl)-5-(2,4-disulfophenyl)-2H-tetrazolium), monosodium salt) to formazan of an orange colour, which dissolves directly in the culture medium in the presence of 1-Methoxy PMS (1-methoxy-5-methylphenazinium methyl sulphate). After an incubation for 1 h at 37° C., the absorbance of the formazan is measured at 450 nm. The absorbance is directly proportional to the number of living cells.
(§2) Briefly, the cells are inoculated in 96-well plates at a rate of 5.10^3 cells per well in 100 μL of the suitable medium until subconfluence. The cells are then washed with D-PBS, then treated with various concentrations (10 μM, 100 μM) of the products to be tested in triplicates for 24 and 48 h. A positive control is carried out with 10% of DMSO. The CCK-8 (10 μL) solution is then added to each well for an incubation for 1 h at 37° C. The measurement of the absorbance is taken at 450 nm using a Perkin Elmer 2103 Envision® microplate reader.
(§3) The viability of the cells is expressed as a % of the control (untreated cells) by the mean±standard deviation of triplicates forming a representative experiment or of three independent experiments conducted in triplicate.

[4] = test system: rat pheochromocytoma cells, treated as neuronal cells (PC12); experiment: Cytotoxicity, cellular viability (CCK-8/WST-8) on PC12; format: cell-based
Protocol: as §1, §2, §3

[5] = test system: murine endothelial brain cells (bEnd.3); experiment: Cytotoxicity, cellular viability (CCK-8/WST-8) on bEnd.3; format: cell-based
Protocol: as §1, §2, §3

[6] = test system: low-density lipoproteins (LDLs); experiment: Antiradical properties: inhibition of lipid peroxidation in AAPH-induced oxidation of LDLs; format: biochemical; conditions: high concentration (100 μM)
Protocol: The antiradical properties of the various compounds are determined by inhibition of the lipid peroxidation in the in vitro model of the oxidation of the low-density lipoproteins (LDLs) (Free Radic. Biol. Med., 1992, 13, 341-390). The lipid peroxidation is initiated by the attack by free radicals of a double bond of a polyunsaturated fatty acid present in the LDLs. […] Once initiated, the oxidation of the LDLs is a chain reaction of lipid peroxidation generated by the free radicals. The oxidation in vitro of the LDLs is induced at 37° C. by the adding of the water-soluble compound 2,2′-Azobis(2-methylpropionamidine)dihydrochloride (AAPH), which generates free radicals during the spontaneous thermal breakdown thereof
Briefly, the oxidation, carried out in a 96-well plate, is induced at 37° C. by adding 20 μL of a solution of AAPH at 2 mM in D-PBS at 160 μL of LDL (100 μg/mL) in the presence or absence of 20 μL of the various solutions of the compounds to be tested dissolved in D-PBS (0.1 to 100 μM in final concentrations). The LDLs alone without adding AAPH are used as a negative control. Each oxidation is carried out in double. During the oxidation, the formation of the conjugated dienes is followed by the measurement of the optical density at 234 nm every 10 minutes for 8 h at 37° C. using a temperature-controlled TECAN spectrophotometer. The vitamin E (α-tocopherol) which is a powerful antioxidant recognised in this in vitro model is used as a reference molecule (J. Nutr. Biochem., 2012, 23, 845-51).

[7] = MRC-5, 10 μM, 24 h of treatment
[8] = MRC-5, 10 μM, 48 h of treatment
[9] = MRC-5, 100 μM, 24 h of treatment
[10] = MRC-5, 100 μM, 48 h of treatment

NCCC(=O)N[C@@H](Cc1cnc[nH]1)C(=O)O [Carnosine, carnosine, reference compound]
antioxidant capacity (ORACFL), in words [1]: very low activity | ORACFL [1]: 0.08 ± 0.05 μmol TE/μmol

Cc1c(C)c2c(c(C)c1O)CCC(C)(C(=O)O)O2 (stereo not shown) [Trolox, 6-hydroxy-2,5,7,8-tetramethylchroman-2-carboxylic acid, reference compound]
ORACFL [1]: 1 μmol TE/μmol

NCC(N)CCC(=O)N1CCN(C(=O)CCn2cccc(O)c2=O)CC1 (stereo not shown) [Compound 37f, 1-(3-(4-(4,5-diaminopentanoyl)piperazin-1-yl)-3-oxopropyl)-3-hydroxypyridin-2(1H)-one]
ORACFL [1]: 1.96 ± 0.24 μmol TE/μmol | disappearance of the free scavenger to the benefit of adducts with the MGO [2]: almost total disappearance of the free scavenger

NCC(N)CCC(=O)N1CCN(C(=O)c2cc(O)c(O)c(O)c2)CC1 (stereo not shown) [Compound 30a, 4,5-diamino-1-(4-(3,4,5-trihydroxybenzoyl)piperazin-1-yl)pentan-1-one]
viability of the cells as a percentage of the untreated cells [3, 7]: 115% | viability of the cells as a percentage of the untreated cells [3, 8]: 101% | viability of the cells as a percentage of the untreated cells [3, 9]: 112% | viability of the cells as a percentage of the untreated cells [3, 10]: 103% | viability of the cells as a percentage of the untreated cells ([4]; rat, 24 h, 10 μM): 116% | viability of the cells as a percentage of the untreated cells ([4]; rat, 24 h, 100 μM): 140% | viability of the cells as a percentage of the untreated cells ([4]; rat, 48 h, 10 μM): 96% | viability of the cells as a percentage of the untreated cells ([4]; rat, 48 h, 100 μM): 113% | viability of the cells as a percentage of the untreated cells ([5]; mouse, 24 h, 10 μM): 117% | viability of the cells as a percentage of the untreated cells ([5]; mouse, 24 h, 100 μM): 96% | viability of the cells as a percentage of the untreated cells ([5]; mouse, 48 h, 10 μM): 95% | viability of the cells as a percentage of the untreated cells ([5]; mouse, 48 h, 100 μM): 108% | ORACFL [1]: 0.89 ± 0.10 μmol TE/μmol

Cl.Cl.NCC(N)C(=O)N1CCNCC1 (stereo not shown) [Dap-Pip, reference compound]
viability of the cells as a percentage of the untreated cells [3, 7]: 125% | viability of the cells as a percentage of the untreated cells [3, 8]: 113% | viability of the cells as a percentage of the untreated cells [3, 9]: 128% | viability of the cells as a percentage of the untreated cells [3, 10]: 111% | anti-radical effect [6]: does not show any anti-radical effect | viability of the cells as a percentage of the untreated cells ([4]; PC12, 10 μM, 24 h of treatment): 114% | viability of the cells as a percentage of the untreated cells ([4]; PC12, 10 μM, 48 h of treatment): 110% | viability of the cells as a percentage of the untreated cells ([4]; PC12, 100 μM, 24 h of treatment): 120% | viability of the cells as a percentage of the untreated cells ([4]; PC12, 100 μM, 48 h of treatment): 102% | viability of the cells as a percentage of the untreated cells ([5]; bEnd.3, 10 μM, 24 h of treatment): 123% | viability of the cells as a percentage of the untreated cells ([5]; bEnd.3, 10 μM, 48 h of treatment): 131% | viability of the cells as a percentage of the untreated cells ([5]; bEnd.3, 100 μM, 24 h of treatment): 103% | viability of the cells as a percentage of the untreated cells ([5]; bEnd.3, 100 μM, 48 h of treatment): 142% | antioxidant capacity (ORACFL), in words [1]: absence of activity | ORACFL [1]: 0 μmol TE/μmol

NCC(N)CC(=O)N1CCN(C(=O)CCn2cccc(O)c2=O)CC1 (stereo not shown) [Compound 37d, 1-(3-(4-(3,4-diaminobutanoyl)piperazin-1-yl)-3-oxopropyl)-3-hydroxypyridin-2(1H)-one]
ORACFL [1]: 1.21 ± 0.07 μmol TE/μmol
